Legend:
Format in all cases: in vivo
Plutella xylostella = assay: Test of Efficacy on Plutella xylostella (cabbage leaf dip); settings: foliar, 72 h, cabbage leaves dipped 30 seconds, second instar larvae, after 3 days, read-out: insecticidal rate
Procedure: 5 parts of the heteroaryl azole compound of the present invention, 93.6 parts of dimethylformamide, and 1.4 parts of polyoxyethylene alkyl aryl ether were mixed and dissolved to prepare emulsion (I) containing 5% of the active ingredient. An insecticidal rate was calculated according to the following expression: Insecticidal rate (%)=(The number of dead insects/The number of tested insects)×100 The emulsion (I) was diluted with water such that the concentration of the compound of the present invention was 125 ppm. Cabbage leaves were dipped in the dilution for 30 seconds. The resulting cabbage leaves were placed in a petri dish. Five second instar larvae of Plutella xylostella were released thereto. The petri dish was placed in a thermostat chamber having a temperature of 25° C. and a humidity of 60%. Life and death were determined after 3 days from the release of the insects, and the insecticidal rate was calculated. The test was conducted in duplicate.

Phyllotreta striolata = assay: Test of Efficacy on Phyllotreta striolata (spray on Qing geng cai seedlings); settings: 168 h, sprayed to Qing geng cai seedlings, adults, after 7 days, read-out: insecticidal rate
Procedure: (§1) 5 parts of the heteroaryl azole compound of the present invention, 93.6 parts of dimethylformamide, and 1.4 parts of polyoxyethylene alkyl aryl ether were mixed and dissolved to prepare emulsion (I) containing 5% of the active ingredient.
(§2) An insecticidal rate was calculated according to the following expression: Insecticidal rate (%)=(The number of dead insects/The number of tested insects)×100
The emulsion (I) was diluted with water such that the concentration of the compound of the present invention was 125 ppm to prepare a test chemical. The test chemical was sprayed to Qing geng cai seedlings (at the seventh true leaf stage) planted in 10-cm pots. The Qing geng cai seedlings were dried in air and then placed in a plastic cup. Ten Phyllotreta striolata adults were released thereto. The plastic cup was stored in a thermostat chamber having a temperature of 25° C. and a humidity of 65%. Life and death were determined after 7 days from the release of the insects, and the insecticidal rate was calculated. The test was conducted in duplicate.

Mythimna separata = assay: Test of Efficacy on Mythimna separata (test feed); settings: 1 μl of emulsion (I) (5% active ingredient) in 0.8 g artificial feed; second instar larvae; 25° C.; fifth day
Procedure: 5 parts of the heteroaryl azole compound of the present invention, 93.6 parts of dimethylformamide, and 1.4 parts of polyoxyethylene alkyl aryl ether were mixed and dissolved to prepare emulsion (I) containing 5% of the active ingredient. For a control, 98.5 parts of dimethylformamide and 1.5 parts of polyoxyethylene alkyl aryl ether were mixed and dissolved to prepare emulsion (II). An insecticidal rate was calculated according to the following expression: Insecticidal rate (%)=(The number of dead insects/The number of tested insects)×100 0.8 g of commercially available artificial feed (Insecta LFS, manufactured by Nosan Corp.) and 1 μl of the emulsion (I) were well mixed to obtain test feed. A plastic test container (capacity: 1.4 ml) was packed with 0.2 g of the test feed per treatment plot. Then, two second instar larvae of Mythimna separata were inoculated to each treatment plot. A plastic lid was put on the test container so as to prevent escape of the second instar larvae of Mythimna separata. The container was placed in a thermostat chamber of 25° C. On the fifth day, the insecticidal rate and the food intake were examined. The test was conducted in duplicate. The insecticidal rate and the food intake of a control plot were examined in the same way as in Test Example 1 except that the emulsion (I) was changed to the emulsion (II).

Aphis craccivora = assay: Test of Efficacy on Aphis craccivora (spray on black-eyed peas); settings: 96 h, 125 ppm, sprayed to black-eyed peas, nymphs, after 4 days, read-out: insecticidal rate
Procedure: as §1, §2
Seedlings of black-eyed peas were raised in 10-cm pots. Aphis craccivora nymphs were inoculated onto primary leaves. The emulsion (I) was diluted with water such that the concentration of the compound of the present invention was 125 ppm. The dilution was sprayed to the black-eyed peas parasitized by the Aphis craccivora nymphs. The black-eyed peas were placed in a thermostat chamber having a temperature of 25° C. and a humidity of 60%. Life and death of Aphis craccivora were determined after 4 days from the spraying, and the insecticidal rate was calculated. The test was conducted in duplicate.

CCS(=O)(=O)c1cc(-c2ncccn2)cnc1-c1ncn(CC(F)(F)C(F)(F)C(F)(F)F)c1C [c-5]
pest or weed control at 125 ppm (Plutella xylostella): ≥ 80% | pest or weed control at 125 ppm (Phyllotreta striolata): ≥ 80% | insecticidal rate or food intake as compared with the control plot (Mythimna separata): insecticidal rate of 100% for Mythimna separata or a food intake of 10% or less as compared with the control plot | pest or weed control at 125 ppm (Aphis craccivora): ≥ 80%

CCS(=O)(=O)c1cc(C2CC2)cnc1-c1ncn(CC(F)(F)C(F)(F)C(F)(F)F)c1C [c-6]
insecticidal rate or food intake as compared with the control plot (Mythimna separata): insecticidal rate of 100% for Mythimna separata or a food intake of 10% or less as compared with the control plot | pest or weed control at 125 ppm (Aphis craccivora): ≥ 80%

CCS(=O)(=O)c1cc(-c2ncccn2)cnc1-c1ncn(/C=C(\F)C(F)(F)C(F)(F)F)c1C [c-8]
pest or weed control at 125 ppm (Plutella xylostella): ≥ 80% | pest or weed control at 125 ppm (Phyllotreta striolata): ≥ 80%

CCS(=O)(=O)c1cc(-c2ncccn2)cnc1-c1ncn(/C=C(\F)C(F)(F)I)c1C [c-9]
pest or weed control at 125 ppm (Plutella xylostella): ≥ 80% | pest or weed control at 125 ppm (Phyllotreta striolata): ≥ 80%

CCS(=O)(=O)c1cc(-c2ncccn2)cnc1-c1ncn(-c2ccc(OC(F)(F)F)cc2)n1 [d-1]
pest or weed control at 125 ppm (Plutella xylostella): ≥ 80% | pest or weed control at 125 ppm (Phyllotreta striolata): ≥ 80%

CCS(=O)(=O)c1ccc(-n2cncn2)nc1-c1ncn(-c2ccc(C(F)(F)F)cn2)n1 [d-3]
insecticidal rate or food intake as compared with the control plot (Mythimna separata): insecticidal rate of 100% for Mythimna separata or a food intake of 10% or less as compared with the control plot | pest or weed control at 125 ppm (Aphis craccivora): ≥ 80%

CCS(=O)(=O)c1cc(C2CC2)cnc1-c1ncn(-c2ccc(C(F)(F)F)cn2)n1 [d-4, 5-cyclopropyl-3-(ethylsulfonyl)-2-(1-(5-(trifluoromethyl)pyridin-2-yl)-1H-1,2,4-triazol-3-yl)pyridine]
pest or weed control at 125 ppm (Plutella xylostella): ≥ 80% | insecticidal rate or food intake as compared with the control plot (Mythimna separata): insecticidal rate of 100% for Mythimna separata or a food intake of 10% or less as compared with the control plot | pest or weed control at 125 ppm (Aphis craccivora): ≥ 80%

CCS(=O)(=O)c1cc(-c2ncccn2)cnc1-c1ncn(-c2ccc(C(F)(F)F)cn2)n1 [d-5]
pest or weed control at 125 ppm (Plutella xylostella): ≥ 80% | insecticidal rate or food intake as compared with the control plot (Mythimna separata): insecticidal rate of 100% for Mythimna separata or a food intake of 10% or less as compared with the control plot

CCS(=O)(=O)c1cc(-c2ccccn2)cnc1-c1ncn(-c2ccc(OC(F)(F)F)cc2)n1 [d-6]
pest or weed control at 125 ppm (Plutella xylostella): ≥ 80% | pest or weed control at 125 ppm (Phyllotreta striolata): ≥ 80% | insecticidal rate or food intake as compared with the control plot (Mythimna separata): insecticidal rate of 100% for Mythimna separata or a food intake of 10% or less as compared with the control plot | pest or weed control at 125 ppm (Aphis craccivora): ≥ 80%

CCS(=O)(=O)c1cc(C2CC2)cnc1-c1ncn(-c2ccc(OC(F)(F)F)cc2)n1 [d-7]
pest or weed control at 125 ppm (Plutella xylostella): ≥ 80% | pest or weed control at 125 ppm (Phyllotreta striolata): ≥ 80%

CCS(=O)(=O)c1ccc(Cl)nc1-c1ncn(-c2ccc(OC(F)(F)F)cc2)n1 [d-10]
insecticidal rate or food intake as compared with the control plot (Mythimna separata): insecticidal rate of 100% for Mythimna separata or a food intake of 10% or less as compared with the control plot | pest or weed control at 125 ppm (Aphis craccivora): ≥ 80%

CCS(=O)(=O)c1ccc(-n2cncn2)nc1-c1ncn(-c2ccc(OC(F)(F)F)cc2)n1 [d-11]
insecticidal rate or food intake as compared with the control plot (Mythimna separata): insecticidal rate of 100% for Mythimna separata or a food intake of 10% or less as compared with the control plot | pest or weed control at 125 ppm (Aphis craccivora): ≥ 80%

CCS(=O)(=O)c1cc(C2(C)CC2)cnc1-c1ncn(-c2ccc(OC(F)(F)F)cc2)n1 [d-14]
insecticidal rate or food intake as compared with the control plot (Mythimna separata): insecticidal rate of 100% for Mythimna separata or a food intake of 10% or less as compared with the control plot | pest or weed control at 125 ppm (Aphis craccivora): ≥ 80%

CCS(=O)(=O)c1cc(C2CC2)cnc1-c1ncn(-c2ccc(OC(F)(F)C(F)F)cc2)n1 [d-15]
pest or weed control at 125 ppm (Plutella xylostella): ≥ 80% | insecticidal rate or food intake as compared with the control plot (Mythimna separata): insecticidal rate of 100% for Mythimna separata or a food intake of 10% or less as compared with the control plot

CCS(=O)(=O)c1cc(-c2ccccn2)cnc1-c1ncn(-c2ccc(OC(F)(F)C(F)F)cc2)n1 [d-16]
pest or weed control at 125 ppm (Plutella xylostella): ≥ 80% | insecticidal rate or food intake as compared with the control plot (Mythimna separata): insecticidal rate of 100% for Mythimna separata or a food intake of 10% or less as compared with the control plot | pest or weed control at 125 ppm (Aphis craccivora): ≥ 80%

CCS(=O)(=O)c1cc(C2CC2)cnc1-c1cn(-c2ccc(OC(F)(F)F)cc2)cn1 [d-19, 5-cyclopropyl-3-(ethylsulfonyl)-2-(1-(4-(trifluoromethoxy)phenyl)-1H-imidazol-4-yl)pyridine]
pest or weed control at 125 ppm (Plutella xylostella): ≥ 80% | pest or weed control at 125 ppm (Phyllotreta striolata): ≥ 80% | insecticidal rate or food intake as compared with the control plot (Mythimna separata): insecticidal rate of 100% for Mythimna separata or a food intake of 10% or less as compared with the control plot | pest or weed control at 125 ppm (Aphis craccivora): ≥ 80%

CCS(=O)(=O)c1cc(-c2ccccn2)cnc1-c1cn(-c2ccc(OC(F)(F)F)cc2)cn1 [d-20]
pest or weed control at 125 ppm (Plutella xylostella): ≥ 80% | pest or weed control at 125 ppm (Phyllotreta striolata): ≥ 80% | insecticidal rate or food intake as compared with the control plot (Mythimna separata): insecticidal rate of 100% for Mythimna separata or a food intake of 10% or less as compared with the control plot | pest or weed control at 125 ppm (Aphis craccivora): ≥ 80%

CCS(=O)(=O)c1cc(C2CC2)c[n+]([O-])c1-c1cn(-c2ccc(OC(F)(F)F)cc2)cn1 [d-22]
pest or weed control at 125 ppm (Plutella xylostella): ≥ 80% | pest or weed control at 125 ppm (Phyllotreta striolata): ≥ 80% | pest or weed control at 125 ppm (Aphis craccivora): ≥ 80%

CCS(=O)(=O)c1cc(-c2ccccn2)cnc1-c1ncn(-c2ccc(OC(F)(F)F)cc2)c1Br [d-23]
pest or weed control at 125 ppm (Plutella xylostella): ≥ 80%

CCS(=O)(=O)c1ccc(-n2cncn2)nc1-c1cn(-c2ccc(OC(F)(F)F)cc2)cn1 [d-24]
pest or weed control at 125 ppm (Plutella xylostella): ≥ 80% | insecticidal rate or food intake as compared with the control plot (Mythimna separata): insecticidal rate of 100% for Mythimna separata or a food intake of 10% or less as compared with the control plot | pest or weed control at 125 ppm (Aphis craccivora): ≥ 80%

CCS(=O)(=O)c1cc(-c2ccccn2)cnc1-c1ncn(-c2ccc(OC(F)(F)F)cc2)c1C [d-25]
pest or weed control at 125 ppm (Plutella xylostella): ≥ 80% | insecticidal rate or food intake as compared with the control plot (Mythimna separata): insecticidal rate of 100% for Mythimna separata or a food intake of 10% or less as compared with the control plot | pest or weed control at 125 ppm (Aphis craccivora): ≥ 80%

CCS(=O)(=O)c1ccc(-n2cncn2)nc1-c1ncn(-c2ccc(OC(F)(F)F)cc2)c1Br [d-26]
pest or weed control at 125 ppm (Plutella xylostella): ≥ 80% | insecticidal rate or food intake as compared with the control plot (Mythimna separata): insecticidal rate of 100% for Mythimna separata or a food intake of 10% or less as compared with the control plot | pest or weed control at 125 ppm (Aphis craccivora): ≥ 80%

CCS(=O)(=O)c1ccc(-n2cncn2)nc1-c1ncn(-c2ccc(OC(F)(F)F)cc2)c1C [d-27]
pest or weed control at 125 ppm (Plutella xylostella): ≥ 80% | insecticidal rate or food intake as compared with the control plot (Mythimna separata): insecticidal rate of 100% for Mythimna separata or a food intake of 10% or less as compared with the control plot | pest or weed control at 125 ppm (Aphis craccivora): ≥ 80%

Reference: patent US12180178B2, “Heteroaryl azole compound and pest control agent” (NIPPON SODA CO., LTD., priority 2018, dated 2024)
